Measured values published in patent US5866597A, “Use of triazine compounds for the treatment of memory and learning disorders” (Glaxo Wellcome Inc., priority 1993, dated 1999).
Like-named read-outs stand apart in the source and are kept apart here.

Legend:
[1] = system: scopolamine-induced deficit in mice; assay: Modified light-dark box memory test in mice, scopolamine-induced deficit, drug given pre-training (Table 1); format: in vivo, Male albino CD-1 mice; settings: for Mean latency Day 1 / Mean latency Day 2: ± SEM
Method: (§1) Male albino CD-1 mice obtained from Charles River were used. They were housed under controlled conditions (temperature 21±2 deg. C., humidity approx. 50%, 12 hour light/dark cycle, food and water ad lib) for one week before use. On the day before test, the mice were housed in groups of six in polythene boxes in the laboratory and marked for identification. Food and water were supplied ad lib. On the test day, animals were weighed and then dosed either 30 minutes before test (piracetam, ondansetron) one hour before test (compound A) or immediately after test.
All drugs were dissolved or suspended in 0.25% (w/v) aqueous celacol, and administered orally (by gavage), i.p. or s.c. The dose volume was 10 ml/kg for all routes.
(§2) The apparatus consisted of two boxes with an opening 90 mm×60 mm at floor level between them. A plastic door was used to close the opening when required. The smaller box (290 mm×120 mm×120 mm high) was made of opaque plastics, open at the top to allow illumination by normal laboratory lighting. The larger box (305 mm square×280 mm high) was enclosed apart from the single opening.
(§3) This consisted of training, with retest 24 hours later. During training, animals were placed individually in the open box facing away from the end with the opening. After a period of exploration, they usually entered the dark box and the latency to entry in seconds was noted. The door to the dark box was closed, and after 30 seconds had elapsed, the animal was removed gently and returned to the holding box. Twenty-four hours later, an identical procedure was used, except that the session ended as soon as the animal had entered the dark box. The latency was again noted. During the interval, the animals were not handled, and were disturbed as little as possible. Each animal was used once only.
(§4) Test drugs or control fluids were given before or immediately after the training session.
Group comparisons were made between latencies to enter the dark compartment on the first and second occasions. For both training and retest occasions, comparisons were made between vehicle and treatment groups. […] The difference between latencies on the two occasions is presented as % decrease on Day 2 compared with Day 1.
(§5) The mean latency to enter the dark box±standard error of the mean was calculated from a group of 12 animals. For a given treatment, figures in the columns labelled `Day 1` and `Day 2` show the mean latencies taken from the same group of animals. The difference between data obtained on the two days is illustrated by showing the % decrease, and the data compared using the Mann-Whitney U-test; NS indicates a p value>0.1.

[2] = system: scopolamine-induced deficit in mice; assay: Modified light-dark box memory test in mice, scopolamine-induced deficit, drug given immediately post-training (Table 2); format: in vivo, Male albino CD-1 mice; settings: for Mean latency Day 1 / Mean latency Day 2: ± SEM
Method: as §1
[…] The dose volume was 10 ml/kg for all routes.
as §2, §3, §4
Group comparisons were made between latencies to enter the dark compartment on the first and second occasions. For both training and retest occasions, comparisons were made between vehicle and treatment groups. The distribution of latencies was skewed on both learning and retest trials (data not shown), so the non-parametric Mann-Whitney U-test was used. The difference between latencies on the two occasions is presented as % decrease on Day 2 compared with Day 1.
as §5

[3] = system: scopolamine-induced deficit in rats; assay: Light-dark box memory test in rats, scopolamine-induced deficit, single dose pre-training (Tables 3 and 4); format: in vivo, Male Wistar rats; settings: for Mean latency Day 1 / Mean latency Day 2: ± SEM; for Effect on expected decrease in latency on retest: scopolamine 0.1 mg/kg
Method: (§6) Male Wistar rats obtained from Charles River were used. They were housed under controlled conditions (temperature 21±2 deg. C., humidity approx. 50%, 12 hour light/dark cycle, food and water ad lib) for one week before use. On the day before test the rats were permanently housed in groups of six. Food and water were supplied ad lib. On the test day, animals were weighed and then dosed either 30 minutes before test (midazolam), one hour before test (compound A) or immediately after test.
(§7) All drugs were dissolved or suspended in 0.25% (w/v) aqueous celacol, and administered orally (by gavage), i.p. or s.c. The dose volume was 5 ml/kg for all routes.
(§8) An identical apparatus to that described in Example 1 was used, except that the smaller box measured 370 mm×260 mm×190 mm.
(§9) This consisted of training as described for mice under section (d) of Example 1.
as §4
(§10) This was as described under section (e) of Example 1.

[4] = system: scopolamine-induced deficit in rats; assay: Light-dark box memory test in rats, sub-acute dosing: pre-training, pre-training and pre-retest, or four pre-treatments and before training and retest (Table 5); format: in vivo, Male Wistar rats
Method: as §6
In the sub-acute dosing regimen (see `Procedure`) the rats, housed as above, received six doses of drug or vehicle by the oral route, each 24 hours apart.
as §7, §8, §9
The procedure was identical with that described above, except that seven groups of rats received compound A or control pre-treatment as 6 oral doses each 24 hours apart, as follows.
Training took place 1 hour after the fifth dose i.e. on day 5. […] The usual retest was performed 24 hours later (on day 6), one hour after the sixth oral treatment.
as §10
The mean latency to enter the dark box±standard error of the mean was calculated from a group of 24 animals (controls in first block) or 12 animals (all other treatments). For a given treatment, figures in the columns labelled `Day 5` and `Day 6` show the mean latencies taken from the same group of animals. The difference between data obtained on the two days is illustrated by showing the % decrease, and the data compared using the Mann-Whitney U-test.

[5] = system: scopolamine-induced pupillary dilatation in rats; assay: Pupil diameter measurement in rats (Table 6); format: in vivo, Male Wistar rats
Method: (§11) 15 minutes before observation. Under these conditions, which were identical to those used in the learning experiments described in Example 2, changes in salivation and pupil diameter were measured. Salivation was measured by placing a piece of folded filter paper in the rat's mouth and measuring the diameter of the blot in mm after 1 minute. Pupil diameter was measured using a magnifying glass and graticule under normal lighting conditions. For both measures, comparisons were made between control and drug-treated groups using a Student's T-test on independent samples.
(§12) Groups of 6 animals were used.

[6] = system: scopolamine-induced dry mouth in rats; assay: Salivation measurement in rats (Table 6); format: in vivo, Male Wistar rats; settings: scopolamine, vehicle-pretreated rats; p<0.01
Method: as §11, §12

scopolamine effect = settings: cited from earlier work; for Reversal of the scopolamine effect: screen for nootropic compounds
[7] = isethionate salt, cited from earlier work
[8] = scopolamine 1 mg/kg s.c. + celacol
[9] = scopolamine 1 mg/kg s.c. + saline (piracetam experiment)
[10] = scopolamine 1 mg/kg s.c. + saline
[11] = scopolamine 0.1 mg/kg s.c. + celacol (Table 3)
[12] = scopolamine 0.1 mg/kg s.c. + saline (Table 4)
[13] = scopolamine 0.1 mg/kg s.c. + celacol days 1-6, ± SEM
[14] = saline s.c. + midazolam 0.5 mg/kg i.p.
[15] = scopolamine 0.1 mg/kg s.c. + midazolam 0.5 mg/kg i.p.
[16] = scopolamine 1 mg/kg s.c. + ondansetron 0.01 ug/kg i.p.
[17] = scopolamine 1 mg/kg s.c. + ondansetron 1.0 ug/kg i.p.
[18] = scopolamine 1 mg/kg s.c. + ondansetron 100 ug/kg i.p.
[19] = saline s.c. + piracetam 2000 mg/kg i.p.
[20] = scopolamine 1 mg/kg s.c. + piracetam 2000 mg/kg i.p.
[21] = saline s.c. + piracetam 2000 mg/kg i.p. post-training
[22] = scopolamine 1 mg/kg s.c. + piracetam 2000 mg/kg i.p. post-training

In the case of CN1[C@@H]2C[C@@H](OC(=O)[C@H](CO)c3ccccc3)C[C@H]1[C@@H]1O[C@@H]12 [Scopolamine], the “Difference between days, % Decrease” value ([1]; scopolamine 1 mg/kg s.c. + celacol, p NS) is reported as -10%, the “Mean latency Day 1” value [1, 8] is reported as 18.8 ± 1.8 s and the “Mean latency Day 2” value [1, 8] is reported as 20.7 ± 2.3 s. The “Difference between days, % Decrease” value ([1]; scopolamine 1 mg/kg s.c. + saline (ondansetron experiment), p NS) was -2%, the “Mean latency Day 1” value ([1]; scopolamine 1 mg/kg s.c. + saline (ondansetron experiment)) was 16.5 ± 1.3 s and the “Difference between days, % Decrease” value ([1]; scopolamine 1 mg/kg s.c. + saline (piracetam experiment), p NS) was -27%. For the same compound, the “Mean latency Day 1” value [1, 9] was 18.9 ± 1.4 s, the “Mean latency Day 2” value [1, 9] was 24.0 ± 2.5 s and the “Effect on expected decrease in latency on retest” value ([1]; scopolamine 1 mg/kg, vehicle-treated mice) was “abolished this effect”. For the same compound, the “Difference between days, % Decrease” value ([2]; scopolamine 1 mg/kg s.c. + saline, p (0.07, up)) was -36%, the “Mean latency Day 1” value [2, 10] was 19.5 ± 2.3 s and the “Mean latency Day 2” value [2, 10] was 26.5 ± 2.7 s. For the same compound, the “Difference between days, % Decrease” value ([3]; scopolamine 0.1 mg/kg s.c. + celacol (Table 3), p NS) was 0%, the “Mean latency Day 1” value [3, 11] was 44.4 ± 4.3 s and the “Mean latency Day 2” value [3, 11] was 44.5 ± 3.7 s. For the same compound, the “Difference between days, % Decrease” value ([3]; scopolamine 0.1 mg/kg s.c. + saline (Table 4), p NS) was -16%, the “Mean latency Day 1” value [3, 12] was 34.4 ± 5.2 s and the “Mean latency Day 2” value [3, 12] was 39.8 ± 4.5 s. For the same compound, the “Effect on expected decrease in latency on retest” value ([3]; vehicle-treated rats (Table 3)) was “reversed this effect”, the “Effect on expected decrease in latency on retest” value ([3]; vehicle-treated rats (Table 4)) was “prevented this effect” and the “Diff. between days, %” value ([4]; scopolamine 0.1 mg/kg s.c. + celacol days 1-6, p NS) was -3%. For the same compound, the “Mean latency Day 5” value [4, 13] was 33.5 ± 2.2 s, the “Mean latency Day 6” value [4, 13] was 34.4 ± 2.5 s and the “Effect on expected decrease in mean latency” value ([4]; scopolamine 0.1 mg/kg, vehicle-treated rats) was “reversed by scopolamine”. For the same compound, the Mean pupil diameter ([5]; celacol p.o. + scopolamine 0.1 mg/kg s.c., ± SEM) was 22.8 ± 1.65 mm × 10, the “Effect on pupil diameter” value ([5]; scopolamine, vehicle-pretreated rats, p<0.01) was “significantly increased pupil diameter” and the Effect on salivation [6] was “reduced salivation”. For the same compound, the Effect on memory (scopolamine effect; given before or immediately after a learning trial) was “can abolish the memory”.
In the case of Cc1ncc2n1-c1ccc(Cl)cc1C(c1ccccc1F)=NC2 [Midazolam], the “Reversal of scopolamine-induced deficit” value ([3]; midazolam 0.5 mg/kg i.p.) is reported as “did not reverse the scopolamine-induced deficit”, the “Difference between days, % Decrease” value ([3]; saline s.c. + midazolam 0.5 mg/kg i.p., p (0.09)) is reported as 29% and the “Mean latency Day 1” value [3, 14] is reported as 39.9 ± 4.9 s. For the same compound, the “Mean latency Day 2” value [3, 14] was 28.2 ± 2.7 s, the “Difference between days, % Decrease” value ([3]; scopolamine 0.1 mg/kg s.c. + midazolam 0.5 mg/kg i.p., p NS) was 9% and the “Mean latency Day 1” value [3, 15] was 37.0 ± 4.0 s. The “Mean latency Day 2” value [3, 15] was 33.6 ± 3.4 s.
In the case of Nc1nnc(-c2cccc(Cl)c2Cl)c(N)n1 [3,5-diamino-6-(2,3-dichlorophenyl)-1,2,4-triazine isethionate], the Solubility [7] is listed as “good solubility” and the Solubility ([7]; listed as The salt with isethionic acid) is listed as “particularly good solubility”.
For Cc1nccn1CC1CCc2c(c3ccccc3n2C)C1=O (stereo not shown) [Ondansetron, 1,2,3,9-tetrahydro-9-methyl-3-[(2-methyl-1H-imidazol-1-yl)methyl]-4H-carbazol-4-one], the “Difference between days, % Decrease” value ([1]; scopolamine 1 mg/kg s.c. + ondansetron 0.01 ug/kg i.p., p NS) was -28%, the “Mean latency Day 1” value [1, 16] was 15.6 ± 1.8 s and the “Mean latency Day 2” value [1, 16] was 20.0 ± 1.9 s. For the same compound, the “Difference between days, % Decrease” value ([1]; scopolamine 1 mg/kg s.c. + ondansetron 1.0 ug/kg i.p., p NS) was -5%, the “Mean latency Day 1” value [1, 17] was 14.3 ± 1.4 s and the “Mean latency Day 2” value [1, 17] was 14.9 ± 1.2 s. For the same compound, the “Difference between days, % Decrease” value ([1]; scopolamine 1 mg/kg s.c. + ondansetron 100 ug/kg i.p., p <0.05) was 28%, the “Mean latency Day 1” value [1, 18] was 16.3 ± 1.9 s and the “Mean latency Day 2” value [1, 18] was 11.8 ± 1.5 s. The “Reversal of the scopolamine effect” value (scopolamine effect) was “positive results”.
For NC(=O)CN1CCCC1=O [Piracetam], the “Day 2 latency versus scopolamine-treated control animals” value ([1]; piracetam 2000 mg/kg i.p. + scopolamine, pre-training, p<0.05) was “significantly different”, the “Difference between days, % Decrease” value ([1]; saline s.c. + piracetam 2000 mg/kg i.p., p <0.01) was 44% and the “Mean latency Day 1” value [1, 19] was 21.4 ± 4.7 s. For the same compound, the “Mean latency Day 2” value [1, 19] was 12.1 ± 1.2 s, the “Difference between days, % Decrease” value ([1]; scopolamine 1 mg/kg s.c. + piracetam 2000 mg/kg i.p., p NS*) was 27% and the “Mean latency Day 1” value [1, 20] was 19.1 ± 2.4 s. The “Mean latency Day 2” value [1, 20] was 13.9 ± 1.8 s, the “Difference between days, % Decrease” value ([2]; saline s.c. + piracetam 2000 mg/kg i.p. post-training, p <0.05) was 28% and the “Mean latency Day 1” value [2, 21] was 18.8 ± 2.0 s. The “Mean latency Day 2” value [2, 21] was 13.5 ± 1.7 s, the “Difference between days, % Decrease” value ([2]; scopolamine 1 mg/kg s.c. + piracetam 2000 mg/kg i.p. post-training, p NS*) was 6% and the “Mean latency Day 1” value [2, 22] was 19.2 ± 1.8 s. For the same compound, the “Mean latency Day 2” value [2, 22] was 18.0 ± 1.8 s and the “Reversal of the scopolamine effect” value (scopolamine effect) was “positive results”.
